# Measurements reported in patent US20100248390A1, “COMPOSITIONS AND METHODS FOR IDENTIFYING LIGANDS OF ODORANT RECEPTORS” (DUKE UNIVERSITY, priority 2009, published 2010).
# Like-named read-outs stand apart in the source and are kept apart here.
# Experiments:
# [1] = molecular target: T1, human odorant receptors (ORs) (Homo sapiens, UniProt Q8WZ94); assay: CRE-luciferase assay of odorant receptor activation (Dual-Glo, Hana3A cells, RTP1S), dose-response EC50; type: cell-based; conditions: receptor OR5P3
# T1 construct: OR open reading frames were amplified from genomic DNA; expressed in transfected cells; host or cells: Hana3A cells, co-transfected with RTP1S, CRE-luciferase and pRL-SV40
# T1 sequence (Q8WZ94 1-311): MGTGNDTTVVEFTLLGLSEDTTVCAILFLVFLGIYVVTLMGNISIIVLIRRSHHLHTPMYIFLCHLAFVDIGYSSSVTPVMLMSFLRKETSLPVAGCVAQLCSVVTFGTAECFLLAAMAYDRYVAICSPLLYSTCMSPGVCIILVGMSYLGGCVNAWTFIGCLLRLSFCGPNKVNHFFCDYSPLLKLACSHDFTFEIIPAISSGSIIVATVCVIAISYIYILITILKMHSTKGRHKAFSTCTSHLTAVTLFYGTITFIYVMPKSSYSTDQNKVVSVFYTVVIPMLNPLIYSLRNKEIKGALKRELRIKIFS
# Procedure, shortened: (§1)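 Hana3A cells were co-transfected with Rho-tagged OR, RTP1S, CRE-luciferase and pRL-SV40, then exposed to odorant in CD293 medium for 4 hrs at 37° C. Firefly luminescence was divided by Renilla and normalized as (LN−Lmin)/(Lmax−Lmin) per plate set. Each dose was tested at least three times, and EC50 came from sigmoidal fits.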
# [2] = molecular target: T2, human odorant receptors (ORs) (Homo sapiens, UniProt O76002); assay: as above; type: cell-based
# T2 construct: OR open reading frames were amplified from genomic DNA; expressed in transfected cells; host or cells: Hana3A cells, co-transfected with RTP1S, CRE-luciferase and pRL-SV40
# T2 sequence (O76002 1-312): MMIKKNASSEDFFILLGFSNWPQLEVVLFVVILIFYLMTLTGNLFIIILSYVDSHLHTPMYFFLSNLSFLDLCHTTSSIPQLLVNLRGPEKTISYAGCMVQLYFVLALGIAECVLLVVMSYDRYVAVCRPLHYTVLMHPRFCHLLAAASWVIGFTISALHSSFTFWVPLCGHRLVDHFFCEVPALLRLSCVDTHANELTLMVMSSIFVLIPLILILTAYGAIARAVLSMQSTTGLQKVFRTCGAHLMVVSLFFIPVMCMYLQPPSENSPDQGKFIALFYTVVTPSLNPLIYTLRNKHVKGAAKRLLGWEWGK
# Procedure, shortened: as §1
# [3] = read-out: log EC50 (Table 4 value), OR5P3 (converted)
"log EC50, OR5P3 ([1]; 0 = no response)","EC50 [1, 3] [µM]",Structure (SMILES),further results
−4.645,–,"C=C(C)C1CC=C(C)C(=O)C1 (single isomer, unassigned; (-)) [(−)-Carvone]",–
–,–,CCCCCCCCCCO [1-Decanol],EC50 [2]: 384 µM
–,–,CCCCCCCO [1-Heptanol],"EC50 ([2]; receptor OR2J2, 0 = no response, read-out: log EC50, OR2J2 (converted)): 536 µM; EC50 ([1]; 0 = no response, read-out: log EC50, OR5P3 (converted)): 1090 µM"
−5.173,–,C=C(C)[C@H]1CC=C(C)C(=O)C1 [(+)-Carvone],–
–,126,CC(=O)c1ccccc1 [Acetophenone],–
–,5.62,O=c1ccc2ccccc2o1 [Coumarin],"EC50 ([2]; receptor OR2J2, read-out: log EC50 (Table 4 value), OR2J2 (converted)): 274 µM"
